Results from patent publication US20090054333A1, “Peptide inhibitors of cyclin-dependent kinase activity and uses thereof” (priority 2006, published 2009).
No end group written: not given here.

B1: Spa: pRb2/p130 spacer fragment, amino acids 616-711, 96 amino acids (protein)
chain: VPTCEEVMPPQNLERADEICIAGSPLTPRRVTEVRADTGGLGRSITSPTTLYDRYSSPPASTTRRRLFVENDSPSDGGTPGRMPPQPLVNAVPVQN
modifications: left off: a dimerising Fc or GST
B2: Spa23: Table 1 construct: pRb2/p130 spacer fragment, amino acids 641-711, 71 amino acids (protein)
chain: LTPRRVTEVRADTGGLGRSITSPTTLYDRYSSPPASTTRRRLFVENDSPSDGGTPGRMPPQPLVNAVPVQN
modifications: left off: a dimerising Fc or GST
B3: Spc: pRb2/p130 spacer fragment, amino acids 755-828, 73 amino acids (protein)
chain: GGITFFPVQVNVGGQAQAVTGSIQPLSAQALAGSLSSQQVTGTTLQVPGQVAIQQISPGGQQQKQGQSVTSSSN
modifications: left off: a dimerising Fc or GST
notes: pRb2/p130 spacer fragment, amino acids 755-828, 73 amino acids
B4: Spa38: pRb2/p130 amino acids 641 to 702 (62 amino acids long), SEQ ID NO:1 (protein, listed as Homo sapiens)
chain: LTPRRVTEVRADTGGLGRSITSPTTLYDRYSSPPASTTRRRLFVENDSPSDGGTPGRMPPQP

Target: cdk2
Test: in vitro cdk2 kinase assay with GST-fusion proteins, histone H1 substrate
Format: biochemical
Set-up: key to Kinase assay (inhibitory effect on cdk2 activity): P=positive; N=negative
Conditions: for Kinase assay (inhibitory effect on cdk2 activity): 0.1 μg GST-fusion protein, cdk2 immunoprecipitated from NIH/3T3; for inhibitory effect on cdk2 activity / histone H1 phosphorylation in vitro: GST-fusion protein added to cdk2 immunoprecipitate from NIH/3T3
Procedure: Constructs preparation: A prokaryotic expression vector pGEX-2T (Stratagene Inc., La Jolla Calif.) and polymerase chain reaction (PCR) were used to generate chimeric Glutathione-S-Transferase constructs. The primers used by PCR to amplify the fragments that were subcloned in the pGEX-2T were derived from the 5′ and 3′ ends of different regions of the spacer domain of […]. The mammalian expression vector pEF6/V5-His TOPO (Invitrogen Corp, Carlsbad, Calif.) was used to generate the constructs pEF6/V5-His-spacer and pEF6/V5-His-310 that express the correspondent genes with a C-terminal V5 epitope. The spacer and the 310 fragments were PCR-amplified with the respective primers (Table 1) to generate 3′ends of the cDNAs without stop codons and were subsequently subcloned into pEF6/V5-His TOPO (Invitrogen Corp, Carlsbad, Calif.) according to the manufacturer's instructions to obtain cDNAs coding for C-terminal fusion proteins. All generated constructs were confirmed by automated sequencing. Information regarding the primers is available upon request.
GST Fusion protein preparation: XL1-Blue bacteria carrying the pGEX-2T vectors were grown to mid log phase and then induced to express protein by adding 0.25 mM of isopropyl-1-thio-β-D-galactopyranoside (IPTG, Roche Applied Science, Indianapolis, Ind.). The cultures were shaken for 4 h; bacteria were then pelleted and resuspended in NENT buffer (20 mM Tris pH 8, 100 mM NaCl, 1 mM EDTA, 0.5% NP-40). Cell suspensions were sonicated, pelleted and the supernatant collected. The remaining bacteria were then resuspended in NENT buffer plus 2% of N-Lauryl-Sarcosine, pelleted and the supernatants were collected again. The combined supernatants were incubated with Glutathione agarose (Amersham Biosciences, Piscataway, N.J.) overnight at 4° C. The agarose was then pelleted and washed three times in NENT buffer.
Kinase assays: Cell lysates from NIH/3T3 were prepared by resuspending pelleted cells in 500 μl of lysis buffer (50 mM Tris, 5 mM EDTA, 250 mM NaCl, 50 mM NaF, 0.1% Triton, 0.1 mM Na3VO4, plus protease inhibitors). An equal amount of protein for each fraction (100 μg) was immunoprecipitated with a polyclonal anti-cdk2 antibody (De Luca et al., 1997, J Biol Chem, 272, 20971-4). The complexes were pulled down with protein A-Sepharose and washed three times with lysis buffer and twice with lysis buffer containing 400 mM NaCl. The complexes were equilibrated in kinase assay buffer (20 mM HEPES pH 7.4, 10 mM MgAc, […], 1 mM DTT). In order to detect the in vitro inhibition of cdk2 activity, each sample was incubated with an equal amount (0.1 μg) of each pGEX-2T fusion protein, in a final volume of 20 μl of kinase buffer, using 5 μCi/sample of γ-ATP (Amersham Biosciences, Piscataway, N.J.) and 2 μg of Histone H1 for 30 minutes at 30° C. Kinase assays were repeated at least three times, giving an inter assay standard deviation within 10% after normalization for protein amount. In order to evaluate the in vivo inhibition of cdk2 activity, cdk2 was immunoprecipitated, as described above, from NIH/3T3 cells transiently transfected with 5 μg of pEF6/V5-spacer, pEF6/V5-Spa310 or the vector alone as a control. The immunocomplexes were split in two tubes. A half of each sample was assayed for cdk2 activity in a final volume of 20 μl of kinase buffer with 5 μCi/sample of γ-ATP and 2 μg of Histone H1 for 30 min. at 30° C.; the second one was tested in western blot analysis to confirm that all the samples contained the amount of cdk2 immunoprecipitated. Briefly the samples were separated into 12% SDS polyacrylamide gels (SDS-PAGE), and then transferred into a nitrocellulose membrane (Schleicher & Schuell, Germany). The membrane was blocked with 5% non-fat dry milk in 1×TBST and incubated with the polyclonal anti-cdk2 antibody described above. […]

Row | Molecule | Kinase assay (inhibitory effect on cdk2 activity) | inhibitory effect on cdk2 activity / histone H1 phosphorylation in vitro
1 | Spa2: pRb2/p130 spacer fragment, amino acids 641-666, 26 amino acids (LTPRRVTEVRADTGGLGRSITSPTTL; UniProt Q08999 641-666, looked up, fragment) | N | little or no inhibitory effect
2 | Spb: pRb2/p130 spacer fragment, amino acids 712-754, 43 amino acids (VSGETVSVTPVPGQTLVTMATATVTANNGQTVTIPVQGIANEN; also: fused to dimerising Fc or GST) | N | –
3 | Spa312: pRb2/p130 spacer fragment, amino acids 641-673, 33 amino acids (LTPRRVTEVRADTGGLGRSITSPTTLYDRYSSP; also: fused to dimerising Fc or GST) | N | –
4 | Spa72: Table 1 construct: pRb2/p130 spacer fragment, amino acids 652-711, 60 amino acids (DTGGLGRSITSPTTLYDRYSSPPASTTRRRLFVENDSPSDGGTPGRMPPQPLVNAVPVQN; also: fused to dimerising Fc or GST) | N | –
5 | Spa311: pRb2/p130 amino acids 641 to 682 (42 amino acids long), SEQ ID NO:2 (LTPRRVTEVRADTGGLGRSITSPTTLYDRYSSPPASTTRRRL; listed as Homo sapiens) | P | –
6 | Spa3: pRb2/p130 spacer fragment, amino acids 663-711, 49 amino acids (PTTLYDRYSSPPASTTRRRLFVENDSPSDGGTPGRMPPQPLVNAVPVQN; also: fused to dimerising Fc or GST) | N | little or no inhibitory effect
7 | Spa12: pRb2/p130 spacer fragment, amino acids 616-666, 51 amino acids (VPTCEEVMPPQNLERADEICIAGSPLTPRRVTEVRADTGGLGRSITSPTTL; cysteine pairing not given here; also: fused to dimerising Fc or GST) | N | –
8 | Spa1: pRb2/p130 spacer fragment, amino acids 616-642, 27 amino acids (VPTCEEVMPPQNLERADEICIAGSPLT; cysteine pairing not given here; also: fused to dimerising Fc or GST) | N | little or no inhibitory effect
9 | B1 | P | inhibitory effect on histone H1 phosphorylation
10 | B2 | P | able to inhibit cdk2 activity
11 | B3 | N | –
12 | B4 | P | –
